Key:
[1] = tested on: Leishmania donovani; assay: Antileishmanial activity against Leishmania donovani promastigotes; format: functional, organism-based
[2] = Selectivity index, ratio of CC50 for African green monkey Vero cells to IC50 for Leishmania donovani promastigotes; format: toxicity; settings: read-out: Ratio CC50/IC50
[3] = tested on: Trypanosoma cruzi; assay: Trypanocidal activity against Trypanosoma cruzi epimastigotes at 100 uM measured after 24 hrs; format: functional
[4] = tested on: Trypanosoma cruzi; assay: Antitrypanosomal activity against Trypanosoma cruzi epimastigotes; format: functional, organism-based
[5] = Selectivity index, ratio of CC50 for African green monkey Vero cells to IC50 for Trypanosoma cruzi epimastigotes; format: toxicity; settings: read-out: Ratio CC50/IC50
[6] = tested on: Trypanosoma cruzi; assay: Antitrypanosomal activity against Trypanosoma cruzi trypomastigotes; format: functional, organism-based
[7] = Selectivity index, ratio of CC50 for African green monkey Vero cells to IC50 for Trypanosoma cruzi trypomastigotes; format: toxicity; settings: read-out: Ratio CC50/IC50
[8] = tested on: Leishmania donovani; assay: Potency index, ratio of Artemisinin IC50 to test compound IC50 for antileishmanial activity against Leishmania donovani promastigotes; format: functional
[9] = tested on: Trypanosoma cruzi; assay: Potency index, ratio of artesunate IC50 to test compound IC50 for antitrypanosomal activity against Trypanosoma cruzi trypomastigotes; format: functional
[10] = tested on: Trypanosoma cruzi; assay: Potency index, ratio of benznidazole IC50 to test compound IC50 for antitrypanosomal activity against Trypanosoma cruzi trypomastigotes; format: functional
[11] = Cytotoxicity against African green monkey Vero cells by neutral red assay; format: cell-based; settings: chlorocebus sabaeus
[12] = tested on: Vero; assay: Cytotoxicity against African green monkey Vero cells up to 4.76 ug/ml by neutral red assay; format: cell-based; settings: chlorocebus sabaeus, dose <=4.76 µg/ml

Which results are given for `COC(=O)c1ccc(/C=C/[C@]23C=C[C@@]4(OO2)C(C)(C)CCC[C@]4(C)O3)cc1` (racemic)?
IC50 [1]: 8.38 µM; IC90 [1]: 18.9 µM; selectivity ratio [2]: 1.54; Activity [3]: 100%; IC50 [4]: 2.27 µM; selectivity ratio [5]: ≥ 5.56; IC50 [6]: 0.84 µM; selectivity ratio [7]: ≥ 15.3; Ratio IC50 [8]: >10; Ratio IC50 [9]: 10; Ratio IC50 [10]: 13; CC50 [11]: > 12.8 µM

With `CC(=O)O[C@@H]1CCC(C)(C)[C@@]23CC[C@@](C)(OO2)O[C@@]13C` (racemic) as the molecule, how does the IC50 [1] read?
Its IC50 is over 100 µM.

And the IC90 [1]?
The IC90 was over 100 µM.

For `C[C@@H]1[C@H](O)[C@@H](C)/C=C/C=C/C=C/C=C/C=C/C=C/C=C/[C@H](O[C@@H]2O[C@H](C)[C@@H](O)[C@H](N)[C@@H]2O)C[C@@H]2O[C@](O)(C[C@@H](O)C[C@@H](O)[C@H](O)CC[C@@H](O)C[C@@H](O)CC(=O)O[C@H]1C)C[C@H](O)[C@H]2C(=O)O` [AMPHOTERICIN B], which IC50 [1] is on record?
The IC50 was 0.19 µM.

What about the IC90 [1] of the same molecule?
Its IC90 is 0.41 µM.

Which results are given for `C[C@H]1[C@H](OC(=O)CCC(=O)O)O[C@@H]2O[C@@]3(C)CC[C@H]4[C@H](C)CC[C@@H]1[C@@]24OO3` [ARTESUNATE]?
IC50 [1]: 12.1 µM; IC50 [4]: 9.44 µM; IC50 [6]: 13 µM

With `CC1(C)CC[C@H](O)[C@]2(C)O[C@@]3(/C=C/c4ccc(C(=O)NCc5ccccc5)cc4)C=C[C@@]12OO3` (racemic) as the molecule, how does the IC50 [1] read?
Its IC50 is 3.47 µM.

What about the IC90 [1] of the same molecule?
The IC90 was 5.42 µM.

And the selectivity ratio [2]?
Its selectivity ratio is 2.69.

And the “Ratio IC50” value [8]?
Its value is over 10.

And the CC50 [11]?
The CC50 was at least 9.33 µM.

For `CC1(C)CCC[C@]2(C)O[C@@]3(/C=C/c4ccc(C(=O)NCc5ccccc5)cc4)C=C[C@@]12OO3` (racemic), which IC50 [1] is on record?
Its IC50 is 2.47 µM.

What about the IC90 [1] of the same molecule?
The IC90 was 15.7 µM.

And the selectivity ratio [2]?
The selectivity ratio was 4.33.

And the Activity [3]?
The Activity was 100%.

What about the IC50 [4] of the same molecule?
The IC50 was 2.48 µM.

What about the selectivity ratio [5] of the same molecule?
Its selectivity ratio is at least 4.3.

What about the IC50 [6] of the same molecule?
The IC50 was 1.16 µM.

What about the selectivity ratio [7] of the same molecule?
Its selectivity ratio is at least 9.21.

And the “Ratio IC50” value [8]?
The value was over 10.

And the “Ratio IC50” value [9]?
The value was 10.

What about the “Ratio IC50” value [10] of the same molecule?
Its value is 13.

And the CC50 [11]?
Its CC50 is over 10.7 µM.

Which results are given for `COC(=O)c1ccc(/C=C/[C@]23C=C[C@@]4(OO2)C(C)(C)CC[C@@H](O)[C@]4(C)O3)cc1` (racemic)?
IC50 [1]: 5.18 µM; IC90 [1]: 15.5 µM; selectivity ratio [2]: 2.38; Ratio IC50 [8]: >10; CC50 [11]: > 11.1 µM

For `O=C(Cn1ccnc1[N+](=O)[O-])NCc1ccccc1` [BENZNIDAZOLE], which IC50 [4] is on record?
The IC50 was 32.5 µM.

What about the IC50 [6] of the same molecule?
The IC50 was 14.9 µM.

With `C[C@@H]1CC[C@H]2[C@@H](C)C(=O)O[C@@H]3O[C@@]4(C)CC[C@@H]1[C@]32OO4` [ARTEMISININ] as the molecule, how does the IC50 [1] read?
The IC50 was over 100 µM.

What does the source list for `CC1(C)CC=C[C@]2(C)O[C@@]3(C)CC[C@@]12OO3` (racemic)?
IC50 [1]: > 100 µM; IC90 [1]: > 100 µM

With `CC1(C)CCC(=O)[C@]2(C)O[C@@]3(C)C=C[C@@]12OO3` (racemic) as the molecule, how does the IC50 [1] read?
Its IC50 is over 100 µM.

And the IC90 [1]?
Its IC90 is over 100 µM.

With `CC1(C)CC[C@@H](O)[C@]2(C)O[C@@]3(/C=C/c4ccc(C(=O)NCc5ccccc5)cc4)C=C[C@@]12OO3` (racemic) as the molecule, how does the IC50 [1] read?
Its IC50 is 7.59 µM.

What about the IC90 [1] of the same molecule?
The IC90 was 15.2 µM.

And the selectivity ratio [2]?
The selectivity ratio was 1.36.

What about the Activity [3] of the same molecule?
Its Activity is 100%.

And the IC50 [4]?
The IC50 was 2.66 µM.

What about the selectivity ratio [5] of the same molecule?
Its selectivity ratio is at least 3.88.

What about the IC50 [6] of the same molecule?
Its IC50 is 0.62 µM.

What about the selectivity ratio [7] of the same molecule?
Its selectivity ratio is at least 16.6.

And the “Ratio IC50” value [8]?
Its value is over 10.

What about the “Ratio IC50” value [9] of the same molecule?
Its value is 20.

And the “Ratio IC50” value [10]?
Its value is 13.

What about the Activity [12] of the same molecule?
The Activity was “Non-Toxic”.

With `CC1(C)CCC[C@]2(C)O[C@@]3(C)C=C[C@@]12OO3` (racemic) as the molecule, how does the IC50 [1] read?
Its IC50 is over 100 µM.

And the IC90 [1]?
The IC90 was over 100 µM.

For `CC(=O)O[C@H]1CCC(C)(C)[C@@]23C=C[C@@](C)(OO2)O[C@@]13C` (racemic), which IC50 [1] is on record?
Its IC50 is over 100 µM.

And the IC90 [1]?
Its IC90 is over 100 µM.

Which results are given for `CC1(C)CC[C@H](O)[C@]2(C)O[C@@]3(C)CC[C@@]12OO3` (racemic)?
IC50 [1]: > 100 µM; IC90 [1]: > 100 µM

For `CC1(C)CC[C@@H](O)[C@]2(C)O[C@@]3(C)C=C[C@@]12OO3` (racemic), which IC50 [1] is on record?
The IC50 was over 100 µM.

And the IC90 [1]?
Its IC90 is over 100 µM.

Which results are given for `COC(=O)c1ccc(/C=C/[C@]23C=C[C@@]4(OO2)C(C)(C)CCC(OC(C)=O)[C@]4(C)O3)cc1` (mixture of isomers)?
IC50 [1]: 7.01 µM; IC90 [1]: 15.2 µM; selectivity ratio [2]: 1.59; Ratio IC50 [8]: >10; Activity [12]: Non-Toxic

For `CC1(C)CCC(=O)[C@]2(C)O[C@@]3(C)CC[C@@]12OO3` (racemic), which IC50 [1] is on record?
Its IC50 is over 100 µM.

And the IC90 [1]?
The IC90 was over 100 µM.

With `CC1(C)CC=C[C@]2(C)O[C@@]3(C)C=C[C@@]12OO3` (racemic) as the molecule, how does the IC50 [1] read?
The IC50 was over 100 µM.

What about the IC90 [1] of the same molecule?
Its IC90 is over 100 µM.

For `N=C(N)c1ccc(OCCCCCOc2ccc(C(=N)N)cc2)cc1` [PENTAMIDINE], which IC90 [1] is on record?
Its IC90 is 5.29 µM.

Which results are given for `CC(=O)O[C@@H]1CCC(C)(C)[C@@]23C=C[C@@](C)(OO2)O[C@@]13C` (racemic)?
IC50 [1]: > 100 µM; IC90 [1]: > 100 µM

With `CC(=O)CCCC(C)(C)C(=O)/C=C/C(=O)/C=C/c1ccc(C(=O)NCc2ccccc2)cc1` as the molecule, how does the IC50 [1] read?
Its IC50 is 5.39 µM.

And the IC90 [1]?
The IC90 was 13.5 µM.

And the selectivity ratio [2]?
The selectivity ratio was 1.98.

And the IC50 [4]?
The IC50 was over 100 µM.

And the IC50 [6]?
Its IC50 is 10.2 µM.

What about the selectivity ratio [7] of the same molecule?
The selectivity ratio was at least 1.05.

What about the “Ratio IC50” value [8] of the same molecule?
The value was over 10.

What does the source list for `CC1(C)CC[C@H](O)[C@]2(C)O[C@@]3(C)C=C[C@@]12OO3` (racemic)?
IC50 [1]: > 100 µM; IC90 [1]: > 100 µM

For `CC1(C)CC[C@@H](O)[C@]2(C)O[C@@]3(C)CC[C@@]12OO3` (racemic), which IC50 [1] is on record?
Its IC50 is over 100 µM.

What about the IC90 [1] of the same molecule?
The IC90 was over 100 µM.
